Target: T1, glucokinase (GK) (Homo sapiens, UniProt P35557)
T1 construct: I.D. No. 1 corresponds to residues 12-465 of glucokinase; made in house; host or cells: E. coli DH10b-T1r
T1 sequence (P35557 with tags, fused parts or gaps isoform P35557-2): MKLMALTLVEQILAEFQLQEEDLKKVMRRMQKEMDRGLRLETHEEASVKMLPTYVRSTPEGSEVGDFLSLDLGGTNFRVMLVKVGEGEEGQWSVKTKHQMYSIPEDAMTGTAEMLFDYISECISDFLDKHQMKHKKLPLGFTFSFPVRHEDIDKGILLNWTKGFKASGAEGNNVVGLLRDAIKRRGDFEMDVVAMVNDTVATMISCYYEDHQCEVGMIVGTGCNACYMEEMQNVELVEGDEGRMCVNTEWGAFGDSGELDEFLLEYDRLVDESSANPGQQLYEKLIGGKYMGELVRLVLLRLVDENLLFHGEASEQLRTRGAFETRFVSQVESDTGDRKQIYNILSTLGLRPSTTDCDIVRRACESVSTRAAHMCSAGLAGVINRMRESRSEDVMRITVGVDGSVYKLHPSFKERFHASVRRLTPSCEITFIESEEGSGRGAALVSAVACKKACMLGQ
Assay: enzymatic glucokinase activity assay (ATP consumption, KinaseGlo luminescence)
Format: biochemical
Settings: 5 mM Glucose, 5 μM ATP; for Emax: calculated maximal gain in GK enzyme activity at a saturating concentration of the compound, read-out: % ACTmax; for EC50: negative log of Kact, the concentration that displays 50% of the maximal increase in GK activity, 60 min at room temperature, read-out: pKact
Text: The activity of compounds as glucokinase activators may be assayed in vitro, in vivo or in a cell line. Provided below is an enzymatic glucokinase activity assay.
Purified glucokinase may be obtained as follows. DNA encoding residues 12-465 of the full-length sequence of the human enzyme may be amplified by PCR and cloned into the HindIII and EcoRI sites of pFLAG-CTC (Sigma). SEQ. I.D. No. 1 corresponds to residues 12-465 of glucokinase.
The expression of recombinant glucokinase protein may be carried out by transformation and growth of DH10b-T1r E. coli cells incorporating the (pFLAG-CTC) plasmid in LB media. Protein expression can be induced in this system by the addition of IPTG to the culture medium.
Recombinant protein may be isolated from cellular extracts by passage over Sepharose Q Fast Flow resin (Pharmacia). This partially purified GK extract may then be further purified by a second passage over Poros HQ10 (Applied Biosystems). The purity of GK may be determined on denaturing SDS-PAGE gel. Purified GK may then be concentrated to a final concentration of 20.0 mg/ml. After flash freezing in liquid nitrogen, the proteins can be stored at −78° C. in a buffer containing 25 mM TRIS-HCl pH 7.6, 50 mM NaCl, and 0.5 mM TCEP.
The activation properties of compounds for GK may be determined using a black 384-well-plate format under the following reaction conditions: 25 mM Hepes pH 7.2, 25 mM NaCl, 10 mM MgCl2, 0.01% Brij35, 1 mM DTT, 5 μM ATP, 5 mM Glucose 2% DMSO. The amount of ATP consumed may be determined quantitatively by addition of equal volume of luciferase reagent (luciferase+beetle luciferin—KinaseGlo Luminescent Kinase Assay kit from Promega). The luminescence intensity may be measured by using the Analyst HT from LJL Biosystems.
The assay reaction may be initiated as follows: 4 μl of substrate mixture (12.5 μM ATP and 12.5 mM Glucose) was added to each well of the plate, followed by the addition of 2 μl of activator (2 fold serial dilutions for 11 data points for each activator) containing 10% DMSO. 4 μL of 1.25 nM GK solution may be added to initiate the reaction. The reaction mixture may then be incubated at room temperature for 60 min, and quenched and developed by addition of 10 μL of luciferase reagent. Luminescence intensities of the resulting reaction mixtures may be measured after a 10 min incubation at room temperature. The luminescence intensity may be measured by using the Analyst HT from LJL Biosystems.
pKact and % ACTmax values may be calculated by non-linear curve fitting of the compound concentrations and luminescence intensities to a standard inhibition/activation equation. […] “pKact” is the negative log of the Kact value; i.e., −log10 [Kact]. % Actmax represents the calculated maximal gain in GK enzyme activity at a saturating concentration of the compound. pKact and % ACTmax values for select compounds of the present invention are given in Table 1.

SMILES | Emax [%] | EC50 [µM]
CC(C)CC(C(=O)Nc1nccs1)n1cc2ccccc2n1 (stereo not drawn) [Example 2, 2-(2H-indazol-2-yl)-4-methyl-N-(thiazol-2-yl)pentanamide] | > 60 | ≥ 31.6
CC(C)CC(C(=O)Nc1nccs1)n1cc2ccc([N+](=O)[O-])cc2n1 (stereo not drawn) [Example 4, 4-methyl-2-(6-nitro-2H-indazol-2-yl)-N-(thiazol-2-yl)pentanamide] | < 50 | ≤ 10
CC(C)CC(C(=O)Nc1nccs1)n1cc2ccc(S(C)(=O)=O)cc2n1 (stereo not drawn) [Example 5, 4-methyl-2-(6-(methylsulfonyl)-2H-indazol-2-yl)-N-(thiazol-2-yl)pentanamide] | < 50 | 12.6 to 25.1
COc1ccc2nn(C(CC(C)C)C(=O)Nc3nccs3)cc2c1 (stereo not drawn) [Example 6, 2-(5-methoxy-2H-indazol-2-yl)-4-methyl-N-(thiazol-2-yl)pentanamide] | 50 to 60 | ≥ 31.6
Cc1c2cc(F)ccc2nn1C(CC(C)C)C(=O)Nc1nccs1 (stereo not drawn) [Example 9, 2-(5-fluoro-3-methyl-2H-indazol-2-yl)-4-methyl-N-(thiazol-2-yl)pentanamide] | 50 to 60 | 12.6 to 25.1
N=C1c2cc(F)ccc2CN1C(CC1CCCCC1)C(=O)Nc1nccs1 (stereo not drawn) [Example 12, 3-cyclohexyl-2-(6-fluoro-1-iminoisoindolin-2-yl)-N-(thiazol-2-yl)propanamide] | > 60 | 12.6 to 25.1
CC(C)CC(C(=O)Nc1nccs1)N1C(=O)c2ccccc2C1=O (stereo not drawn) [Example 13, 2-(1,3-dioxoisoindolin-2-yl)-4-methyl-N-(thiazol-2-yl)pentanamide] | > 60 | ≤ 10
CC(C)CC(C(=O)Nc1ccccn1)N1C(=O)c2ccccc2C1=O (stereo not drawn) [Example 14, 2-(1,3-dioxoisoindolin-2-yl)-4-methyl-N-(pyridin-2-yl)pentanamide] | > 60 | 12.6 to 25.1

More lines, now with the values ahead:

Emax [%] | EC50 [µM] | SMILES
50 to 60 | ≥ 31.6 | CC(C)CC(C(=O)Nc1nccs1)n1cc2cc(F)ccc2n1 (stereo not drawn) [Example 3, 2-(5-fluoro-2H-indazol-2-yl)-4-methyl-N-(thiazol-2-yl)pentanamide]
> 60 | ≥ 31.6 | CC(C)CC(C(=O)Nc1nccs1)n1cc2cc(O)ccc2n1 (stereo not drawn) [Example 7, 2-(5-hydroxy-2H-indazol-2-yl)-4-methyl-N-(thiazol-2-yl)pentanamide]
< 50 | ≤ 10 | Cc1c2ccccc2nn1C(CC(C)C)C(=O)Nc1nccs1 (stereo not drawn) [Example 8, 4-methyl-2-(3-methyl-2H-indazol-2-yl)-N-(thiazol-2-yl)pentanamide]
> 60 | ≤ 10 | N=C1c2ccccc2CN1C(CC1CCCCC1)C(=O)Nc1nccs1 (stereo not drawn) [Example 11, 3-cyclohexyl-2-(1-iminoisoindolin-2-yl)-N-(thiazol-2-yl)propanamide]
